10 compounds from patent US11267822B2, “BET bromodomain protein degraders with cleavable linkers” (THE REGENTS OF THE UNIVERSITY OF MICHIGAN, priority 2017, dated 2022) can be followed below.

The subject of one data set is MOLM13. The experiment in a line: Cell growth inhibition, CellTiter-Glo Luminescent Cell Viability Assay, MOLM13. The data set is classed as cell-based. The settings on record: MOLM13 cells, 4 days. How it is done:
(§1) Cell growth inhibitory activity of representative Compounds of the Disclosure was determined using the CellTiter-Glo® Luminescent Cell Viability Assay. Cells were seeded in 384-well white opaque cell culture plates at a density of 2,000 cells/well with serially diluted compounds and incubated at 37° C. in an atmosphere of 95% air and 5% CO2 for 4 days. Cell viability was determined using the CellTiter-Glo® Luminescent Cell Viability Assay Kit (Promega, Madison, Wis.) according to the manufacture's instruction. Briefly, a volume of CellTiter-Glo® Reagent equal to the volume of cell culture medium was added to each well, and then the plates were incubated at room temperature for 10-20 minutes. The luminescent signal was measured using a Tecan Infinite M1000 multimode microplate reader (Tecan, Morrisville, N.C.). The half maximal inhibitory concentration (IC50) in Table 3 was calculated using the GraphPad Prism 5 software (GraphPad Software, La Jolla, Calif.).
On the technique in general: ATP-based viability assays read luminescence as a measure of living cells.

The subject of a further data set is MDA-MB-231. Nature of the data set: Cell growth inhibition, CellTiter-Glo Luminescent Cell Viability Assay, MDA-MB-231. The settings on record: MDA-MB-231 cells, 4 days. The data set is classed as cell-based. How it is done: as §1
A further data set has as its system BET protein. The experiment in a line: Pharmacodynamic effect in RS4;11 tumor tissue in mice (BET protein degradation). As to conditions: RS4;11 tumor-bearing mice, intravenous dosing at 10 mg/kg. The data set is classed as in vivo. The text has this:
FIG. 1 is an illustration showing the pharmacodynamic effect of Cpd. No. 15 in RS4;11 tumor tissue in mice.
FIG. 2 is an illustration showing the pharmacodynamic effect of Cpd. No. 16 in RS4;11 tumor tissue in mice.
The pharmacodynamic effect of Cpd. No. 15 and Cpd.

Data set [1] can be described thus: Pharmacokinetics in RS4;11 tumor-bearing mice (plasma and tumor concentrations). The class given is in vivo. The settings on record: for Cpd. No. 15 Concentration in plasma: IV 10 mg/kg Cpd. No. 15, RS4;11 tumor-bearing mice. The text has this:
The pharmacokinetics of Cpd. No. 15 in RS4;11 tumor-bearing mice show it is converted to Cpd. No. 52 in plasma and tumor tissue. BLOQ=below limit of detection; nd=not determined

A value given as a limit tells only on which side of the number the result lay.

In general, IC50 refers to the midpoint of a concentration-inhibition curve. A low value points to higher potency. On to `Cc1nnc2n1-c1sc(C#Cc3cnn(CCCC(=O)OCCC#Cc4cccc5c4CN(C4CCC(=O)NC4=O)C5=O)c3)c(Cc3ccccc3)c1COC2` (centres unmarked) [Cpd. No. 16, 4-(2-(2,6-dioxopiperidin-3-yl)-1-oxoisoindolin-4-yl)but-3-yn-1-yl 4-(4-((3-benzyl-9-methyl-4H,6H-thieno[2,3-e][1,2,4]triazolo[3,4-c][1,4]oxazepin-2-yl)ethynyl)-1H-pyrazol-1-yl)butanoate], for which the IC50 with MOLM13 (Homo sapiens, MOLM-13, 96 h) came to 0.4 nM; with MOLM13, 0.2 nM; with MDA-MB-231 (Homo sapiens, MDA-MB-231, 96 h) it was 1.5 nM; in the data set on MDA-MB-231, 0.9 nM. Moreover, the “Pharmacodynamic effect: BET protein degradation in tumor tissue” value in the data set on BET protein was “induce BET protein degradation in tumor tissue”.

For `Cc1nnc2n1-c1sc(C#Cc3cnn(CCCC(=O)OCCCOc4cccc5c4CN(C4CCC(=O)NC4=O)C5=O)c3)c(Cc3ccccc3)c1COC2` (centres unmarked) [Cpd. No. 15, 3-((2-(2,6-dioxopiperidin-3-yl)-1-oxoisoindolin-4-yl)oxy)propyl 4-(4-((3-benzyl-9-methyl-4H,6H-thieno[2,3-e][1,2,4]triazolo[3,4-c][1,4]oxazepin-2-yl)ethynyl)-1H-pyrazol-1-yl)butanoate], the “Cpd. No. 15 Concentration in tumor” value is “BLOQ” in data set [1] (IV 10 mg/kg Cpd. No. 15, 1 h, Mouse 1 L tumor); “BLOQ” in data set [1] (IV 10 mg/kg Cpd. No. 15, 1 h, Mouse 1 R tumor); “BLOQ” in data set [1] (IV 10 mg/kg Cpd. No. 15, 1 h, Mouse 2 L tumor); “BLOQ” in data set [1] (IV 10 mg/kg Cpd. No. 15, 1 h, Mouse 2 R tumor); “BLOQ” in data set [1] (IV 10 mg/kg Cpd. No. 15, 3 h, Mouse 1 L tumor); “BLOQ” in data set [1] (IV 10 mg/kg Cpd. No. 15, 3 h, Mouse 1 R tumor). The “Cpd. No. 15 Concentration in tumor” value is on record as “BLOQ” in data set [1] (IV 10 mg/kg Cpd. No. 15, 3 h, Mouse 2 L tumor) and “BLOQ” in data set [1] (IV 10 mg/kg Cpd. No. 15, 3 h, Mouse 2 R tumor). Also, the “Cpd. No. 15 Concentration in plasma” value in data set [1] (1 h, mouse 1) is on record as “BLOQ”; in data set [1] (1 h, mouse 2), “BLOQ”; in data set [1] (3 h, mouse 1), “BLOQ”; in data set [1] (3 h, mouse 2), “BLOQ”. In addition, the “Conversion (metabolism) in plasma and tumor tissue” value in data set [1] (RS4;11 tumor-bearing mice, IV 10 mg/kg) was “converted to Cpd. No. 52 in plasma and tumor tissue”. The “Pharmacodynamic effect: BET protein degradation in tumor tissue” value in the data set with BET protein was “induce BET protein degradation in tumor tissue”.

As for `Cc1nnc2n1-c1sc(C#Cc3cnn(CCOC(=O)CCC#Cc4cccc5c4CN(C4CCC(=O)NC4=O)C5=O)c3)c(Cc3ccccc3)c1COC2` (centres unmarked) [compound 33, 2-(4-((3-benzyl-9-methyl-4H,6H-thieno[2,3-e][1,2,4]triazolo[3,4-c][1,4]oxazepin-2-yl)ethynyl)-1H-pyrazol-1-yl)ethyl 5-(2-(2,6-dioxopiperidin-3-yl)-1-oxoisoindolin-4-yl)pent-4-ynoate], the half-inhibitory concentration (IC50) in the data set on MOLM13 was 1.6 nM; with MDA-MB-231, 35.6 nM.

In the case of `Cc1nnc2n1-c1sc(C#Cc3ccc(CCCC(=O)OCCN4CCN(c5cccc6c5C(=O)N(C5CCC(=O)NC5=O)C6=O)CC4)nc3)c(Cc3ccccc3)c1COC2` (centres unmarked) [compound 43, 2-(4-(2-(2,6-dioxopiperidin-3-yl)-1,3-dioxoisoindolin-4-yl)piperazin-1-yl)ethyl 4-(5-((3-benzyl-9-methyl-4H,6H-thieno[2,3-e][1,2,4]triazolo[3,4-c][1,4]oxazepin-2-yl)ethynyl)pyridin-2-yl)butanoate], the IC50 was over 100 nM in the data set with MOLM13 (Homo sapiens, MOLM-13, 96 h) and over 100 nM in the data set with MDA-MB-231 (Homo sapiens, MDA-MB-231, 96 h).

Consider `Cc1c(C#Cc2cnn(CCCC(=O)OCCN3CCC(Nc4cccc5c4CN(C4CCC(=O)NC4=O)C5=O)CC3)c2)sc2c1C(c1ccc(Cl)cc1)=N[C@@H](CC(=O)N1CCN(C)CC1)c1nnc(C)n1-2` (stereo partly drawn) [compound 12, 2-(4-((2-(2,6-dioxopiperidin-3-yl)-1-oxoisoindolin-4-yl)amino)piperidin-1-yl)ethyl 4-(4-(((S)-4-(4-chlorophenyl)-3,9-dimethyl-6-(2-(4-methylpiperazin-1-yl)-2-oxoethyl)-6H-thieno[3,2-f][1,2,4]triazolo[4,3-a][1,4]diazepin-2-yl)ethynyl)-1H-pyrazol-1-yl)butanoate], for which the IC50 was 0.05 nM in the data set with MOLM13 (Homo sapiens, MOLM-13, 96 h) and 0.08 nM with MDA-MB-231 (Homo sapiens, MDA-MB-231, 96 h).

On to `Cc1nnc2n1-c1sc(C#Cc3ccn(CCC(=O)OCCC#Cc4cccc5c4CN(C4CCC(=O)NC4=O)C5=O)n3)c(Cc3ccccc3)c1COC2` (centres unmarked) [compound 28, 4-(2-(2,6-dioxopiperidin-3-yl)-1-oxoisoindolin-4-yl)but-3-yn-1-yl 3-(3-((3-benzyl-9-methyl-4H,6H-thieno[2,3-e][1,2,4]triazolo[3,4-c][1,4]oxazepin-2-yl)ethynyl)-1H-pyrazol-1-yl)propanoate], for which the IC50 is 0.2 nM in the data set on MOLM13 (Homo sapiens, MOLM-13, 96 h) and 2 nM in the data set on MDA-MB-231 (Homo sapiens, MDA-MB-231, 96 h).

In the case of `Cc1nnc2n1-c1sc(C#Cc3cnn(CCCC(=O)OCOCCCOc4cccc5c4CN(C4CCC(=O)NC4=O)C5=O)c3)c(Cc3ccccc3)c1COC2` (centres unmarked) [compound 23, (3-((2-(2,6-dioxopiperidin-3-yl)-1-oxoisoindolin-4-yl)oxy)propoxy)methyl 4-(4-((3-benzyl-9-methyl-4H,6H-thieno[2,3-e][1,2,4]triazolo[3,4-c][1,4]oxazepin-2-yl)ethynyl)-1H-pyrazol-1-yl)butanoate], the IC50 in the data set with MOLM13 (Homo sapiens, MOLM-13, 96 h) was determined as 2.1 nM; in the data set with MDA-MB-231 (Homo sapiens, MDA-MB-231, 96 h) it was 77.9 nM.

`Cc1nnc2n1-c1sc(C#Cc3cnn(CCCC(=O)OCCN4CCN(c5cccc6c5C(=O)N(C5CCC(=O)NC5=O)C6=O)CC4)c3)c(Cc3ccccc3)c1COC2` (centres unmarked) [compound 44, 2-(4-(2-(2,6-dioxopiperidin-3-yl)-1,3-dioxoisoindolin-4-yl)piperazin-1-yl)ethyl 4-(4-((3-benzyl-9-methyl-4H,6H-thieno[2,3-e][1,2,4]triazolo[3,4-c][1,4]oxazepin-2-yl)ethynyl)-1H-pyrazol-1-yl)butanoate]: the IC50 is 4.3 nM in the data set with MOLM13 (Homo sapiens, MOLM-13, 96 h) and over 100 nM with MDA-MB-231 (Homo sapiens, MDA-MB-231, 96 h).

`Cc1c(C#Cc2cnn(CCCC(=O)OCCCOc3cccc4c3CN(C3CCC(=O)NC3=O)C4=O)c2)sc2c1C(c1ccc(Cl)cc1)=N[C@@H](C)c1nnc(C)n1-2` (stereo partly drawn) [Cpd. No. 5, 3-((2-(2,6-dioxopiperidin-3-yl)-1-oxoisoindolin-4-yl)oxy)propyl 4-(4-(((S)-4-(4-chlorophenyl)-3,6,9-trimethyl-6H-thieno[3,2-f][1,2,4]triazolo[4,3-a][1,4]diazepin-2-yl)ethynyl)-1H-pyrazol-1-yl)butanoate]: the IC50 in the data set with MOLM13 (Homo sapiens, MOLM-13, 96 h) was 0.1 nM; in the data set on MDA-MB-231 (Homo sapiens, MDA-MB-231, 96 h), 0.1 nM.

Turning to `Cc1c(C#Cc2cnn(CC(=O)OCC#Cc3cccc4c3CN(C3CCC(=O)NC3=O)C4=O)c2)sc2c1C(c1ccc(Cl)cc1)=N[C@@H](C)c1nnc(C)n1-2` (stereo partly drawn) [compound 3, 3-(2-(2,6-dioxopiperidin-3-yl)-1-oxoisoindolin-4-yl)prop-2-yn-1-yl 2-(4-(((S)-4-(4-chlorophenyl)-3,6,9-trimethyl-6H-thieno[3,2-f][1,2,4]triazolo[4,3-a][1,4]diazepin-2-yl)ethynyl)-1H-pyrazol-1-yl)acetate], the IC50 in the data set on MOLM13 is 1.8 nM; in the data set on MDA-MB-231, 2.1 nM.
